{"source": "patent US5427942A", "about": "(State of Oregon, Acting by and Through the Oregon State …, priority 1991, dated 1995)", "key": {"[1]": {"test_system": "COS-7 cells", "conditions": "previously shown (Zhou et al., 1990); cited from earlier work"}, "[2]": {"test_system": "D5 pseudogenes D5.psi.1 (HGRI-6) and D5.psi.2 (HGRI-8)", "assay": "[3H]SCH23390 binding to membranes of cells transfected with putative pseudogenes", "set-up": "species or system human", "conditions": "each of the two putative pseudogenes"}}, "data": [{"smiles": "CN1CCc2cc(Cl)c(O)cc2[C@@H](c2ccccc2)C1", "note": "[SCH23390]", "values": [{"measurement": "ability to bind SCH23390", "setting": "[1]", "result": "lack the ability to bind"}]}, {"smiles": "CN1CCc2cc(Cl)c(O)cc2[C@@H](c2ccccc2)C1", "note": "[[^3 H]SCH23390]", "values": [{"measurement": "binding to pseudogene-transfected membranes", "setting": "[2]", "result": "failed to bind"}]}]}
